A value given as a limit tells only on which side of the number the result lay.

This experiment relates to mice. As to the kind of experiment: Neuropharmacological Assay (SmartCube). The class given is in vivo. The conditions noted are these: for minimal effective dose: Mus musculus, read-out: POTENCY (minimal effective dose, MED); for AD: ADHD (SmartCube probability) / AG: analgesic (SmartCube probability) / AX: anxiolytic (SmartCube probability) / CE: cognitive enhancer (SmartCube probability) / DP: anti-depressant (SmartCube probability) / MS: mood stabilizer (SmartCube probability) / PS: anti-psychotic (SmartCube probability) / SD: sedative hypnotic (SmartCube probability) / UN: uncharacterized CNS activity (SmartCube probability): mice, i.p. 15 min before test, most efficacious dose(s) of 3 doses. A digest of the protocol: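 Compounds in NMP/PEG/propylene glycol given i.p. 15 min before automated video-based behavioral testing, at 3 doses; behavioral signature compared with a reference-compound database to give probability per drug class, reported at most efficacious dose. MED = dose (mpk) giving ≥50% total activity; doses typically 0.3–30 mpk.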

Setting [1] is: MED = dose having 50% or more total activity in SmartCube.

What is called minimal effective dose is the lowest level tested that produced the effect sought. Take `CNC[C@H]1OCCc2cc(F)ccc21` [Example 16, (S)-1-(6-fluoroisochroman-1-yl)-N-methylmethanamine]: the “AD: ADHD (SmartCube probability)” value is on record as “+ (LOQ≤ + <5%)”, the “AG: analgesic (SmartCube probability)” value is given as “++ (5%≤ ++ <25%)”, the “AX: anxiolytic (SmartCube probability)” value is reported as “++ (5%≤ ++ <25%)” and the “CE: cognitive enhancer (SmartCube probability)” value (“CE: cognitive enhancer” below) is reported as “+ (LOQ≤ + <5%)”. The “DP: anti-depressant (SmartCube probability)” value (“DP: anti-depressant” for short) is reported as “++ (5%≤ ++ <25%)”, the “MS: mood stabilizer (SmartCube probability)” value (shortened to “MS: mood stabilizer”) is “+ (LOQ≤ + <5%)”, the “PS: anti-psychotic (SmartCube probability)” value (“PS: anti-psychotic” below) is recorded as “+++ (25%≤ +++ <50%)” and the “SD: sedative hypnotic (SmartCube probability)” value (“SD: sedative hypnotic” for short) was “++ (5%≤ ++ <25%)”. Besides, the “UN: uncharacterized CNS activity (SmartCube probability)” value (“UN: uncharacterized CNS activity” for short) is “+ (LOQ≤ + <5%)”. Besides, the minimal effective dose under setting [1] was in the range of 10 to 30 mg/kg.

For the compound `CNC[C@@H]1OC[C@H](F)c2ccccc21` [Example 22, 1-((1R,4R)-4-fluoroisochroman-1-yl)-N-methylmethanamine], the “AD: ADHD (SmartCube probability)” value is “+ (LOQ≤ + <5%)”, the “AG: analgesic (SmartCube probability)” value was “++ (5%≤ ++ <25%)”, the “AX: anxiolytic (SmartCube probability)” value is given as “++ (5%≤ ++ <25%)” and the “CE: cognitive enhancer” value is listed as “++ (5%≤ ++ <25%)”. The “DP: anti-depressant” value was “+++ (25%≤ +++ <50%)”, the “MS: mood stabilizer” value is listed as “++ (5%≤ ++ <25%)”, the “PS: anti-psychotic” value was “+++ (25%≤ +++ <50%)” and the “SD: sedative hypnotic” value is on record as “++ (5%≤ ++ <25%)”. The “UN: uncharacterized CNS activity” value is on record as “+ (LOQ≤ + <5%)”. Under setting [1], the minimal effective dose is under 3 mg/kg.

As to `CNC[C@@H]1OCCc2cc(Cl)ccc21` [Example 81, (R)-1-(6-chloroisochroman-1-yl)-N-methylmethanamine], the “AD: ADHD (SmartCube probability)” value is “++ (5%≤ ++ <25%)”, the “AG: analgesic (SmartCube probability)” value was “+ (LOQ≤ + <5%)”, the “AX: anxiolytic (SmartCube probability)” value was “++ (5%≤ ++ <25%)” and the “CE: cognitive enhancer” value was “+ (LOQ≤ + <5%)”. The “DP: anti-depressant” value is on record as “++++ (50%≤ ++++)”, the “MS: mood stabilizer” value is given as “+ (LOQ≤ + <5%)”, the “PS: anti-psychotic” value is given as “+ (LOQ≤ + <5%)” and the “SD: sedative hypnotic” value was “+ (LOQ≤ + <5%)”. Moreover, the “UN: uncharacterized CNS activity” value is “++ (5%≤ ++ <25%)”. In addition, the minimal effective dose under setting [1] is under 3 mg/kg.

On to `NC[C@@H]1OCCc2c(F)cccc21` [Example 29, (R)-(5-fluoroisochroman-1-yl)methanamine], for which the “AD: ADHD (SmartCube probability)” value is on record as “+ (LOQ≤ + <5%)”, the “AG: analgesic (SmartCube probability)” value is reported as “++ (5%≤ ++ <25%)”, the “AX: anxiolytic (SmartCube probability)” value is “++ (5%≤ ++ <25%)” and the “CE: cognitive enhancer” value was “++ (5%≤ ++ <25%)”. In addition, the “DP: anti-depressant” value is “++++ (50%≤ ++++)”, the “MS: mood stabilizer” value was “+ (LOQ≤ + <5%)”, the “PS: anti-psychotic” value is recorded as “+ (LOQ≤ + <5%)” and the “SD: sedative hypnotic” value is reported as “+ (LOQ≤ + <5%)”. The “UN: uncharacterized CNS activity” value was “++ (5%≤ ++ <25%)”. Further, the minimal effective dose under setting [1] was 3 to 10 mg/kg.

With `CNC[C@H]1OCCc2ccc3c(c21)OCCO3` [Example 9, (S)-N-methyl-1-(2,3,7,10-tetrahydro-8H-[1,4]dioxino[2,3-h]isochromen-10-yl)methanamine], the “AD: ADHD (SmartCube probability)” value is on record as “+ (LOQ≤ + <5%)”, the “AG: analgesic (SmartCube probability)” value is listed as “++ (5%≤ ++ <25%)”, the “AX: anxiolytic (SmartCube probability)” value is recorded as “++ (5%≤ ++ <25%)” and the “CE: cognitive enhancer” value is “+ (LOQ≤ + <5%)”. Also, the “DP: anti-depressant” value is listed as “+++ (25%≤ +++ <50%)”, the “MS: mood stabilizer” value is recorded as “++ (5%≤ ++ <25%)”, the “PS: anti-psychotic” value was “++ (5%≤ ++ <25%)” and the “SD: sedative hypnotic” value is reported as “++ (5%≤ ++ <25%)”. Besides, the “UN: uncharacterized CNS activity” value is on record as “+++ (25%≤ +++ <50%)”. For the same compound, the minimal effective dose under setting [1] was in the range of 3 to 10 mg/kg.

Consider `CNC[C@@H]1OCCc2cccc(C#N)c21` [Example 45, (R)-1-((methylamino)methyl)isochromane-8-carbonitrile], for which the “AD: ADHD (SmartCube probability)” value is on record as “+ (LOQ≤ + <5%)”, the “AG: analgesic (SmartCube probability)” value is reported as “++ (5%≤ ++ <25%)”, the “AX: anxiolytic (SmartCube probability)” value was “++ (5%≤ ++ <25%)” and the “CE: cognitive enhancer” value was “++ (5%≤ ++ <25%)”. Further, the “DP: anti-depressant” value is “+ (LOQ≤ + <5%)”, the “MS: mood stabilizer” value is listed as “+ (LOQ≤ + <5%)”, the “PS: anti-psychotic” value is recorded as “++ (5%≤ ++ <25%)” and the “SD: sedative hypnotic” value is given as “+ (LOQ≤ + <5%)”. Further, the “UN: uncharacterized CNS activity” value is recorded as “++++ (50%≤ ++++)”. Further, under setting [1], the minimal effective dose lay in the range of 3 to 10 mg/kg.

Turning to `CNC[C@@H]1OCCc2cccc(C)c21` [Example 41, (R)-N-methyl-1-(8-methylisochroman-1-yl)methanamine], the “AD: ADHD (SmartCube probability)” value was “+ (LOQ≤ + <5%)”, the “AG: analgesic (SmartCube probability)” value is “++ (5%≤ ++ <25%)”, the “AX: anxiolytic (SmartCube probability)” value is recorded as “++ (5%≤ ++ <25%)” and the “CE: cognitive enhancer” value is listed as “+ (LOQ≤ + <5%)”. For the same compound, the “DP: anti-depressant” value is reported as “++ (5%≤ ++ <25%)”, the “MS: mood stabilizer” value is “+ (LOQ≤ + <5%)”, the “PS: anti-psychotic” value is recorded as “++++ (50%≤ ++++)” and the “SD: sedative hypnotic” value is reported as “++ (5%≤ ++ <25%)”. In addition, the “UN: uncharacterized CNS activity” value is on record as “++++ (50%≤ ++++)”. Under setting [1], the minimal effective dose was under 3 mg/kg.

`CNC[C@@H]1OC[C@@H](C)c2ccccc21` [Example 20, N-methyl-1-((1R,4S)-4-methylisochroman-1-yl)methanamine]: the “AD: ADHD (SmartCube probability)” value is given as “+ (LOQ≤ + <5%)”, the “AG: analgesic (SmartCube probability)” value was “+ (LOQ≤ + <5%)”, the “AX: anxiolytic (SmartCube probability)” value was “++ (5%≤ ++ <25%)” and the “CE: cognitive enhancer” value is “++ (5%≤ ++ <25%)”. Further, the “DP: anti-depressant” value was “++ (5%≤ ++ <25%)”, the “MS: mood stabilizer” value is “+ (LOQ≤ + <5%)”, the “PS: anti-psychotic” value is “++++ (50%≤ ++++)” and the “SD: sedative hypnotic” value is recorded as “++ (5%≤ ++ <25%)”. Also, the “UN: uncharacterized CNS activity” value is “++++ (50%≤ ++++)”. Besides, the minimal effective dose under setting [1] was under 3 mg/kg.

Take `CNC[C@H]1OCCc2ccc(F)cc21` [Example 13, (S)-1-(7-fluoroisochroman-1-yl)-N-methylmethanamine]: the “AD: ADHD (SmartCube probability)” value is on record as “+ (LOQ≤ + <5%)”, the “AG: analgesic (SmartCube probability)” value is recorded as “++ (5%≤ ++ <25%)”, the “AX: anxiolytic (SmartCube probability)” value is “++ (5%≤ ++ <25%)” and the “CE: cognitive enhancer” value is reported as “+ (LOQ≤ + <5%)”. In addition, the “DP: anti-depressant” value is given as “++ (5%≤ ++ <25%)”, the “MS: mood stabilizer” value is on record as “+ (LOQ≤ + <5%)”, the “PS: anti-psychotic” value is on record as “+ (LOQ≤ + <5%)” and the “SD: sedative hypnotic” value was “++ (5%≤ ++ <25%)”. For the same compound, the “UN: uncharacterized CNS activity” value was “+++ (25%≤ +++ <50%)”. The minimal effective dose under setting [1] lay within 10 to 30 mg/kg.

Consider `NC[C@H]1OCCc2c(Cl)cccc21` [Example 66, (S)-(5-chloroisochroman-1-yl)methanamine], for which the “AD: ADHD (SmartCube probability)” value is recorded as “+ (LOQ≤ + <5%)”, the “AG: analgesic (SmartCube probability)” value is listed as “+ (LOQ≤ + <5%)”, the “AX: anxiolytic (SmartCube probability)” value is recorded as “++ (5%≤ ++ <25%)” and the “CE: cognitive enhancer” value was “+ (LOQ≤ + <5%)”. For the same compound, the “DP: anti-depressant” value is “++++ (50%≤ ++++)”, the “MS: mood stabilizer” value is “+ (LOQ≤ + <5%)”, the “PS: anti-psychotic” value is reported as “+ (LOQ≤ + <5%)” and the “SD: sedative hypnotic” value is reported as “+ (LOQ≤ + <5%)”. In addition, the “UN: uncharacterized CNS activity” value is “+ (LOQ≤ + <5%)”. For the same compound, the “POTENCY (minimal effective dose, MED)” value under setting [1] is reported as “A-B”.

As to `CNC[C@H]1OCCc2c(Cl)cccc21` [Example 32, (S)-1-(5-chloroisochroman-1-yl)-N-methylmethanamine], the “AD: ADHD (SmartCube probability)” value is on record as “+ (LOQ≤ + <5%)”, the “AG: analgesic (SmartCube probability)” value is recorded as “+ (LOQ≤ + <5%)”, the “AX: anxiolytic (SmartCube probability)” value was “++ (5%≤ ++ <25%)” and the “CE: cognitive enhancer” value is reported as “++ (5%≤ ++ <25%)”. Further, the “DP: anti-depressant” value is recorded as “++ (5%≤ ++ <25%)”, the “MS: mood stabilizer” value was “+ (LOQ≤ + <5%)”, the “PS: anti-psychotic” value was “++ (5%≤ ++ <25%)” and the “SD: sedative hypnotic” value is listed as “+ (LOQ≤ + <5%)”. For the same compound, the “UN: uncharacterized CNS activity” value is listed as “+ (LOQ≤ + <5%)”. Under setting [1], the minimal effective dose was 10 to 30 mg/kg.

Turning to `CNC[C@H]1OC[C@@H](F)c2ccccc21` [Example 21, 1-((1S,4S)-4-fluoroisochroman-1-yl)-N-methylmethanamine], the “AD: ADHD (SmartCube probability)” value is “+ (LOQ≤ + <5%)”, the “AG: analgesic (SmartCube probability)” value is reported as “+++ (25%≤ +++ <50%)”, the “AX: anxiolytic (SmartCube probability)” value was “++ (5%≤ ++ <25%)” and the “CE: cognitive enhancer” value is recorded as “++ (5%≤ ++ <25%)”. In addition, the “DP: anti-depressant” value is “++ (5%≤ ++ <25%)”, the “MS: mood stabilizer” value is “+ (LOQ≤ + <5%)”, the “PS: anti-psychotic” value is reported as “++ (5%≤ ++ <25%)” and the “SD: sedative hypnotic” value is on record as “++ (5%≤ ++ <25%)”. Also, the “UN: uncharacterized CNS activity” value is given as “+++ (25%≤ +++ <50%)”. Besides, the minimal effective dose under setting [1] is 3 to 10 mg/kg.

The values are drawn from US10196403B2, “Compounds and compositions and uses thereof” (Sunovion Pharmaceuticals Inc., priority 2016, dated 2019).
